Converted amounts (≈) assume the structure as drawn. Read-outs that look alike come from different tables or passages of the source.
How the values were obtained:
Assay type in all cases: cell-based
[1] = test system: Klebsiella pneumoniae (Kp); test: Minimum inhibitory concentration (MIC) in nutrient agar, Klebsiella pneumoniae
Description: (§1) The antimicrobial activity of the compounds of the present invention is set forth as the minimum inhibitory concentration (MIC) for the active compounds and is determined for nine (9) bacteria, using nutrient agar, and seven (7) yeast and fungi, using malt yeast agar. This determination is conducted using a one percent solution of the test compound prepared in a mixture of acetone and water.
(§2) Nutrient agar is prepared at pH 6.8, representing a neutral medium, and at pH 8.2, representing an alkaline medium. The nutrient agars are prepared by adding 23 g of nutrient agar to one-liter of deionized water. In addition, the alkaline medium is prepared by adjusting a 0.04M solution of N-[tris-(hydroxymethyl)methyl]glycine buffered deionized water with concentrated sodium hydroxide to a pH of 8.5.
(§3) The test tubes containing the agar are cooled in a water bath until the temperature of the agar is 48° C. Then, an appropriate amount of the one percent solution of the test compound is added (except in the controls where no compound is added) to the respective test tubes so that the final concentrations are 500, […], 100, 50, 25, 10, 5, 2.5, 1.0 and zero parts per million of the test compound in the agar, thus having a known concentration of test compound dispersed therein. The contents of the test tubes are then transferred to respective petri plates. After drying for 24 hours, the petri plates containing nutrient agar are inoculated with bacteria and those containing malt yeast agar are inoculated with yeast and fungi.
(§4) The inoculation with bacteria is accomplished by using the following procedure. Twenty-four hour-cultures of each of the bacteria are prepared by incubating the respective bacteria in tubes containing nutrient broth for 24 hours at 30° C. in a shaker. Dilutions of each of the 24 hour-cultures are made so that nine separate suspensions (one for each of the nine test bacteria) are made, each containing 10^8 colony forming units (CFU) per mL of suspension of a particular bacteria. Aliquots of 0.3 mL of each of the bacterial suspensions are used to fill the individual wells of Steer's Replicator. For each microbial suspension, 0.3 mL was used to fill three wells (i.e., three wells of 0.3 mL each) so that for the nine different bacteria, 27 wells are filled. The Steer's Replicator is then used to inoculate both the neutral and alkaline pH nutrient agar petri plates.
(§5) The inoculated petri plates are incubated at 30° C. for 48 hours and then read to determine if the test compound which is incorporated into the agar prevented growth of the respective bacteria.

[2] = test system: Staphylococcus aureus (Sa); test: Minimum inhibitory concentration (MIC) in nutrient agar, Staphylococcus aureus
Description: as §1, §2, §3, §4, §5

[3] = test system: Salmonella choleraesuis (Se); test: Minimum inhibitory concentration (MIC) in nutrient agar, Salmonella choleraesuis; conditions: Salmonella enterica
Description: as §1, §2, §3, §4, §5

Aspergillus niger (An) = test: Minimum inhibitory concentration (MIC) in malt yeast agar, Aspergillus niger; conditions: pH 5.5; malt yeast agar, 30° C., 72 hours for fungi; read-out: Minimum Inhibitory Concentration, An
Description: as §1
(§6) Malt yeast agar is prepared at pH 5.5 by adding 3 g yeast extract and 45 g malt agar per liter of deionized water. The specific agar is dispensed in 30 mL aliquots into 25×200 mm test tubes, capped and autoclaved for 15 minutes at 115° C.
as §3
(§7) The inoculation with the yeast and fungi is accomplished as follows. Cultures of yeast and fungi are incubated for seven days on malt yeast agar at 30° C. These cultures are used to prepare suspensions by the following procedure. A suspension of each organism is prepared by adding 10 mL of sterile saline and 10 microliters of octylphenoxy polyethoxy ethanol to the agar slant of yeast or fungi. The sterile saline/octylphenoxy potyethoxy ethanol solution is then agitated with a sterile swab to suspend the microorganism grown on the slant. Each resulting suspension is diluted into sterile saline (1 part suspension: 9 parts sterile saline). Aliquots of these dilutions are placed in individual wells of Steer's Replicator and petri plates inoculated as previously described. The petri plates are incubated at 30° C. and read after 48 hours for yeast and 72 hours for fungi.

Fusarium oxysporum (Fo) = test: Minimum inhibitory concentration (MIC) in malt yeast agar, Fusarium oxysporum
Description: as §1, §6, §3, §7

Candida albicans (Ca) = test: Minimum inhibitory concentration (MIC) in malt yeast agar, Candida albicans
Description: as §1, §6, §3, §7

Bacillus subtilis (Bs) = test: Minimum inhibitory concentration (MIC) in nutrient agar, Bacillus subtilis
Description: as §1, §2, §3, §4, §5

Proteus vulgaris (Pv) = test: Minimum inhibitory concentration (MIC) in nutrient agar, Proteus vulgaris
Description: as §1, §2, §3, §4, §5

[4] = test system: Pseudomonas aeruginosa (Pa); test: Minimum inhibitory concentration (MIC) in nutrient agar, Pseudomonas aeruginosa
Description: as §1, §2, §3, §4, §5

[5] = test system: Pseudomonas aeruginosa (PRD-10); test: Minimum inhibitory concentration (MIC) in nutrient agar, Pseudomonas aeruginosa PRD-10; conditions: 48 h
Description: as §1, §2, §3, §4, §5

Escherichia coli (Ec) = test: Minimum inhibitory concentration (MIC) in nutrient agar, Escherichia coli
Description: as §1, §2, §3, §4, §5

[6] = test system: Saccharomyces cerevisiae (Sc); test: Minimum inhibitory concentration (MIC) in malt yeast agar, Saccharomyces cerevisiae; conditions: pH 5.5, malt yeast agar, 30° C., 48 hours for yeast, read-out: Minimum Inhibitory Concentration, SC
Description: as §1, §6, §3, §7

[7] = test system: Enterobacter aerogenes (Ea); test: Minimum inhibitory concentration (MIC) in nutrient agar, Enterobacter aerogenes; conditions: Klebsiella aerogenes
Description: as §1, §2, §3, §4, §5

[8] = test system: Aureobasidium pullulan (Ap); test: Minimum inhibitory concentration (MIC) in malt yeast agar, Aureobasidium pullulan; conditions: pH 5.5, read-out: Minimum Inhibitory Concentration, Ap
Description: as §1, §6, §3, §7

Trichoderma viride (Tv) = test: Minimum inhibitory concentration (MIC) in malt yeast agar, Trichoderma viride; conditions: pH 5.5; malt yeast agar, 30° C., 72 hours for fungi; read-out: Minimum Inhibitory Concentration, Tv
Description: as §1, §6, §3, §7

[9] = test system: Penicillium chrysogenum (Pc); test: Minimum inhibitory concentration (MIC) in malt yeast agar, Penicillium chrysogenum; conditions: 72 h, pH 5.5, read-out: Minimum Inhibitory Concentration, PC
Description: as §1, §6, §3, §7

[10] = 48 h, pH 8.2, read-out: Minimum Inhibitory Concentration, Kp
[11] = pH 6.8, nutrient agar, 30° C., 48 hours, read-out: Minimum Inhibitory Concentration, Kp
[12] = 48 h, pH 6.8, read-out: Minimum Inhibitory Concentration, Sa
[13] = 48 h, pH 8.2, read-out: Minimum Inhibitory Concentration, SC
[14] = pH 6.8, nutrient agar, 30° C., 48 hours, read-out: Minimum Inhibitory Concentration, Bs
[15] = 48 h, pH 8.2, read-out: Minimum Inhibitory Concentration, Pv
[16] = pH 6.8, nutrient agar, 30° C., 48 hours, read-out: Minimum Inhibitory Concentration, Pa
[17] = pH 6.8, read-out: Minimum Inhibitory Concentration, PRD
[18] = pH 8.2, read-out: Minimum Inhibitory Concentration, PRD
[19] = 48 h, pH 8.2, read-out: Minimum Inhibitory Concentration, Ec
[20] = 48 h, pH 8.2, read-out: Minimum Inhibitory Concentration, Ea
[21] = 48 h, pH 8.2, read-out: Minimum Inhibitory Concentration, Sa
[22] = 48 h, pH 6.8, read-out: Minimum Inhibitory Concentration, SC
[23] = pH 5.5, malt yeast agar, 30° C., 48 hours for yeast, read-out: Minimum Inhibitory Concentration, Ca
[24] = 48 h, pH 8.2, read-out: Minimum Inhibitory Concentration, Bs
[25] = 48 h, pH 6.8, read-out: Minimum Inhibitory Concentration, Pv
[26] = pH 8.2, nutrient agar, 30° C., 48 hours, read-out: Minimum Inhibitory Concentration, Pa
[27] = 48 h, pH 6.8, read-out: Minimum Inhibitory Concentration, Ec
[28] = 48 h, pH 6.8, read-out: Minimum Inhibitory Concentration, Ea

| SMILES | MIC [1, 10] [µg/mL] | MIC [1, 11] [µg/mL] | MIC [2, 12] [µg/mL] | MIC [3, 13] [µg/mL] | MIC (Aspergillus niger (An)) [µg/mL] | MIC (Bacillus subtilis (Bs); [14]) [µg/mL] | MIC (Proteus vulgaris (Pv); [15]) [µg/mL] | MIC [4, 16] [µg/mL] | MIC [5, 17] [µg/mL] | MIC [5, 18] [µg/mL] | MIC (Escherichia coli (Ec); [19]) [µg/mL] | MIC [6] [µg/mL] | MIC [7, 20] [µg/mL] | MIC [8] [µg/mL] | MIC (Trichoderma viride (Tv)) [µg/mL] | MIC [2, 21] [µg/mL] | MIC [3, 22] [µg/mL] | MIC (Candida albicans (Ca); [23]) [µg/mL] | MIC (Bacillus subtilis (Bs); [24]) [µg/mL] | MIC (Proteus vulgaris (Pv); [25]) [µg/mL] | further results |
| --- | --- | --- | --- | --- | --- | --- | --- | --- | --- | --- | --- | --- | --- | --- | --- | --- | --- | --- | --- | --- | --- |
| N#CSc1nsnc1-c1cccnc1 [Example XV, 4-(3-Pyridyl)-3-thiocyanato-1,2,5-thiadiazole] | 500 (≈ 2270 µM) | 100 (≈ 454 µM) | 50 (≈ 227 µM) | 500 (≈ 2270 µM) | 100 (≈ 454 µM) | 25 (≈ 113 µM) | 500 (≈ 2270 µM) | 500 (≈ 2270 µM) | 500 (≈ 2270 µM) | 500 (≈ 2270 µM) | 500 (≈ 2270 µM) | 50 (≈ 227 µM) | 500 (≈ 2270 µM) | 50 (≈ 227 µM) |  |  |  |  |  |  | MIC ([3]; pH 6.8, nutrient agar, 30° C., 48 hours, read-out: Minimum Inhibitory Concentration, SC): 250 µg/mL (≈ 1130 µM); MIC (Fusarium oxysporum (Fo); 72 h, pH 5.5, read-out: Minimum Inhibitory Concentration, Fo): 50 µg/mL (≈ 227 µM); MIC (Candida albicans (Ca); 48 h, pH 5.5, read-out: Minimum Inhibitory Concentration, Ca): 100 µg/mL (≈ 454 µM); MIC (Bacillus subtilis (Bs); pH 8.2, nutrient agar, 30° C., 48 hours, read-out: Minimum Inhibitory Concentration, Bs): 100 µg/mL (≈ 454 µM); MIC (Proteus vulgaris (Pv); pH 6.8, nutrient agar, 30° C., 48 hours, read-out: Minimum Inhibitory Concentration, Pv): 100 µg/mL (≈ 454 µM); MIC ([4]; 48 h, pH 8.2, read-out: Minimum Inhibitory Concentration, Pa): 500 µg/mL (≈ 2270 µM); MIC (Escherichia coli (Ec); pH 6.8, nutrient agar, 30° C., 48 hours, read-out: Minimum Inhibitory Concentration, Ec): 250 µg/mL (≈ 1130 µM); MIC ([7]; pH 6.8, nutrient agar, 30° C., 48 hours, read-out: Minimum Inhibitory Concentration, Ea): 250 µg/mL (≈ 1130 µM) |
| COC(=O)c1ccc(-c2nsnc2SCSC#N)cc1 [Example XXVIII] | > 500 | 500 (≈ 1550 µM) |  | > 500 | 100 (≈ 309 µM) |  | > 500 | 500 (≈ 1550 µM) | 500 (≈ 1550 µM) | > 500 | 500 (≈ 1550 µM) | 250 (≈ 773 µM) | > 500 | 50 (≈ 155 µM) | > 500 | 500 (≈ 1550 µM) | 500 (≈ 1550 µM) | 500 (≈ 1550 µM) | 500 (≈ 1550 µM) | 500 (≈ 1550 µM) | MIC ([2]; pH 6.8, nutrient agar, 30° C., 48 hours, read-out: Minimum Inhibitory Concentration, Sa): 500 µg/mL (≈ 1550 µM); MIC (Fusarium oxysporum (Fo); pH 5.5, malt yeast agar, 30° C., 72 hours for fungi, read-out: Minimum Inhibitory Concentration, Fo): 250 µg/mL (≈ 773 µM); MIC (Bacillus subtilis (Bs); 48 h, pH 6.8, read-out: Minimum Inhibitory Concentration, Bs): 500 µg/mL (≈ 1550 µM); MIC [4, 26]: > 500 µg/mL; MIC (Escherichia coli (Ec); [27]): 500 µg/mL (≈ 1550 µM); MIC [7, 28]: 500 µg/mL (≈ 1550 µM) |
| N#CSc1nsnc1-c1ccc(Br)cc1 [Example VI, 4-(4-Bromophenyl)-3-thiocyanato-1,2,5-thiadiazole] | 500 (≈ 1680 µM) | 500 (≈ 1680 µM) | 50 (≈ 168 µM) | 500 (≈ 1680 µM) | 5 (≈ 16.8 µM) | 25 (≈ 83.8 µM) | 500 (≈ 1680 µM) | 500 (≈ 1680 µM) | 500 (≈ 1680 µM) | 500 (≈ 1680 µM) | 500 (≈ 1680 µM) | 5 (≈ 16.8 µM) | 500 (≈ 1680 µM) | 2.5 (≈ 8.38 µM) | < 1 | 500 (≈ 1680 µM) | 500 (≈ 1680 µM) | 5 (≈ 16.8 µM) | 500 (≈ 1680 µM) | 500 (≈ 1680 µM) | MIC [4, 26]: 500 µg/mL (≈ 1680 µM); MIC (Escherichia coli (Ec); [27]): 500 µg/mL (≈ 1680 µM); MIC [7, 28]: 500 µg/mL (≈ 1680 µM); MIC [9]: 10 µg/mL (≈ 33.5 µM) |

Reference: patent publication US5488060A, “Substituted thiadiazoles, compositions containing them and their use as antimicrobial and marine antifouling agents” (The Dow Chemical Company, priority 1994, dated 1996)
